Assay [1] deals with Caco-2 colon cancer cells. Description: Caco-2 scratch wound assay (proliferation and migration). The class given is cell-based. As to conditions: Caco-2 cells incubated with inhibitor, FIG. 9. As for the experimental part:
FIG. 9 is a graph showing that MK2 inhibition decreases colon cancer carcinoma cell proliferation. Incubating Caco-2 colon cancer cells with the MK2 inhibitor (MK2a) decreased proliferation and migration in a scratch wound assay.

The subject of assay [2] is neoplasms in AOM/DSS exposed mice. Description: AOM/DSS mouse model of colon cancer, neoplasm number after MK2 inhibitor treatment. The format is in vivo. As to conditions: treated three times a week for three weeks; FIG. 10. As for the experimental part:
FIG. 10 is a graph showing that AOM/DSS exposed mice treated with MK2 inhibitors regresses neoplasms.
Mice: C57Bl/6 mice from Harlan Laboratories and the MK2^−/−tm1Mgl (8) mouse strain were bred under pathogen free conditions. Animal procedures were approved by the UNM IACUC. Azoxymethane (AOM), (Sigma Aldrich, St. Louis, Mo.) was injected […] into 6-8 week old female mice at 12.5 mg/kg. Dextran Sodium Sulfate (DSS), (MP Biomedicals, MW 36,000-50,000) was added to drinking water at 2.5% at days 5 and 26 and at 2.0% at day 47, 2.0% for 5 days sacrificed at day 80. Control mice received PBS IP and no DSS in water. Mouse Colon Supernatants: 8 mg (±0.5 mg) of cleaned colon tissues were incubated in complete RPMI with antibiotics for 12 hours. Supernatants were analyzed for cytokines by Luminex bead array (Millipore, Billerica, Mass.) according to manufacturer's instructions.

The structures appear in SMILES notation.

In the case of `O=C(CCCc1ccc(-c2ccccc2F)cc1)Nc1ccc(O)cc1` [MK2a inhibitor], the “migration in a scratch wound assay” value in assay [1] is given as “decreased”. In addition, in assay [1] (scratch wound assay), the “colon cancer carcinoma cell proliferation” value was “decreased”. In addition, the “neoplasms (number) in AOM/DSS exposed mice” value in assay [2] is given as “significantly less neoplasms”.

These data come from patent publication US10512651B2, “Inhibition of MK2 in the treatment of cancer” (STC.UNM, priority 2014, dated 2019).
